# The source made the active and inactive calls.
# Assays:
# [1] = target: Dual specificity tyrosine-phosphorylation-regulated kinase 1A (Rattus norvegicus, UniProt Q63470); format: biochemical, Homo sapiens
# [2] = target: T1, High affinity choline transporter 1 (Homo sapiens, UniProt Q9GZV3); experiment: CHT inhibitors, dose response, cell-based, 5-point CRC, membrane potential dye (AID 504840); format: functional
# T1 sequence (Q9GZV3 whole entry): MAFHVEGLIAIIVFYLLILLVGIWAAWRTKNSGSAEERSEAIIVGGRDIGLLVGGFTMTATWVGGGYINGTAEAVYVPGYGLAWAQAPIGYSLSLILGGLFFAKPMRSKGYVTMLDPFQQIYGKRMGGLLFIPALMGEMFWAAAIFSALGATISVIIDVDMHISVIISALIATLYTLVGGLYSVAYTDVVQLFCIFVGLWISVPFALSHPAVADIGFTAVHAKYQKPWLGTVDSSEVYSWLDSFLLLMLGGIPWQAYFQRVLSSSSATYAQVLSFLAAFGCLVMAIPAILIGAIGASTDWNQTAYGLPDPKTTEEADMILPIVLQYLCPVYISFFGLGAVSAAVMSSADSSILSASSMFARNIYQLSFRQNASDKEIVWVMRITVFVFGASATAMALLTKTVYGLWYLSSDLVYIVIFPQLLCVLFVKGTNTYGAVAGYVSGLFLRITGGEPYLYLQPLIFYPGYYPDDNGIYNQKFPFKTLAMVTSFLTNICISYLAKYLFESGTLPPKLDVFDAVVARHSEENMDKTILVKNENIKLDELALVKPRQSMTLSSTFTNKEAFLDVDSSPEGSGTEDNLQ
# [3] = tested on: Streptococcus sp. 'group A'; experiment: growth inhibition of control SK(-) GAS strain, dose response, counter-screen for streptokinase expression inhibitor project, luminescence, kanamycin, BacTiterGlo, confirmation (AID 1900); format: functional, organism-based
# [4] = target: T2, Streptokinase A (Streptococcus pyogenes serotype M1, UniProt P10520); experiment: S. pyogenes streptokinase expression inhibitors, potency, dose response, plasminogen activation absorbance, OD405 (AID 1914); format: functional, Streptococcus pyogenes M1 GAS;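 note: secreted streptokinase activity via plasminogen activation per viability signal from cell pellet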
# T2 sequence (P10520 whole entry): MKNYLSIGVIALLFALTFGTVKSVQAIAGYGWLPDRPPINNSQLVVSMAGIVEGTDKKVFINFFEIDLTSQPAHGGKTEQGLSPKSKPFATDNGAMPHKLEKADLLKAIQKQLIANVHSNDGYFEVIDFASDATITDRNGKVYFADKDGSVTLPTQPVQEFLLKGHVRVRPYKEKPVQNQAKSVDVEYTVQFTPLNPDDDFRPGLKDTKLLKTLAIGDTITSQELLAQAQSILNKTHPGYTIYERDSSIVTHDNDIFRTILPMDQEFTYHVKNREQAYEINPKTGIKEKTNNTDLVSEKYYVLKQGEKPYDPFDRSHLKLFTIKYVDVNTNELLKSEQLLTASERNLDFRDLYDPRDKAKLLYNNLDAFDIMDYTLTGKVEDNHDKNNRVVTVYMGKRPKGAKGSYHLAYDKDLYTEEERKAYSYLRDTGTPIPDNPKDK
# [5] = tested on: Streptococcus; experiment: Group A Streptococcus viability loss, dose response, counter-screen for streptokinase expression inhibitor project, luminescence, BacTiterGlo (AID 1915); format: functional, organism-based;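 note: potency for reduction of bacterial viability or growth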
# [6] = Luminescence Cell-Based Dose Retest to Confirm Inhibitors of Cancer Stem Cells. [Related pubchem assays (depositor defined):AID2717, AID2721]; format: functional; conditions: Homo sapiens
# [7] = cytotoxicity in HMLE control line with eGFP shRNA, dose response, counter-screen for HMLE_sh_ECad selective toxicity project, cell-based, HMLE_sh_eGFP, luminescence (AID 463074); format: functional, Homo sapiens;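 note: HMLE human mammary epithelial cells expressing control shRNA against eGFP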
# [8] = target: Delta-type opioid receptor (Homo sapiens, UniProt P41143); experiment: Counterscreen for agonists of heterodimerization of the mu 1 (OPRM1) and delta 1 (OPRD1) opioid receptors: Luminescence-based cell-based high throughput dose response assay to identify agonists of OPRD1 homodimerization. [Related pubchem assays (depositor defined):AID504326, AID504355, AID504692, AID504904, AID504905]; format: functional
# [9] = target: Mu-type opioid receptor (Homo sapiens, UniProt P35372); experiment: Counterscreen for agonists of heterodimerization of the mu 1 (OPRM1) and delta 1 (OPRD1) opioid receptors: Luminescence-based cell-based high throughput dose response assay to identify agonists of OPRM1 homodimerization.; format: functional;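 note: U2OS cells expressing OPRM1 and beta-arrestin as split beta-galactosidase partners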
# [10] = target: 5-hydroxytryptamine receptor 5A (Homo sapiens, UniProt P47898); experiment: Counterscreen for agonists of OPRM1-OPRD1 heterodimerization: luminescence-based cell-based high throughput dose response assay to identify agonists of 5-hydroxytryptamine (serotonin) 5A receptor (HTR5A). [Related pubchem assays (depositor defined):AID504326, AID504355, AID504692, AID504904, AID504905]; format: functional
# [11] = target: T3, Cytochrome P450 1A2 (Homo sapiens, UniProt P05177);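 note: PubChem cytochrome P450 panel assay, CYP1A2 panel member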
# T3 sequence (P05177 whole entry): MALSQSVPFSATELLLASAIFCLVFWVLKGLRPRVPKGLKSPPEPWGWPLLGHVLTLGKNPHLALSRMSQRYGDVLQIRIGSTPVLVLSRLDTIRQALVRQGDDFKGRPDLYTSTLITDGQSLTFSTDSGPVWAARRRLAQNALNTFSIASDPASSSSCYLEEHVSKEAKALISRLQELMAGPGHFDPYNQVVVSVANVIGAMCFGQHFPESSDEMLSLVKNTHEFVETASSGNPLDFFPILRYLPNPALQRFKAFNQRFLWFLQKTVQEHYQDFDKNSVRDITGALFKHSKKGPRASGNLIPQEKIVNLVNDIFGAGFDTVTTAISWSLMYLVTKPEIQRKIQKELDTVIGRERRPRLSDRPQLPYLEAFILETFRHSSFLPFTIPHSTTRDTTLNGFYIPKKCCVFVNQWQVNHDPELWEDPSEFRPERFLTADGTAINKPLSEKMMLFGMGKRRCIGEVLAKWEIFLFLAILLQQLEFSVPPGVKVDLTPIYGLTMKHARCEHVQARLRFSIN
# [12] = target: Cytochrome P450 2C9 (Homo sapiens, UniProt P11712)
# [13] = target: Glucose-6-phosphate 1-dehydrogenase (Homo sapiens, UniProt P11413); experiment: human G6PD enzyme inhibitors, dose response, selectivity assay for P. falciparum G6PD inhibitor project, biochemical, fluorescence (AID 504792); format: functional
# [14] = Shn3 3'UTR reporter inhibitors, dose response, cell-based, Clone20 osteoblasts, firefly luciferase, cherry-picked (AID 624132); format: functional;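 note: firefly luciferase luminescence from reporter carrying the Shn3 3'UTR in osteoblasts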
# [15] = HepG2 cell cytotoxicity, dose response, cytotoxicity control for Shn3 inhibitor project, CellTiter-Glo, cherry-picked (AID 624134); format: functional, cell-based
# [16] = control 3'UTR Renilla luciferase suppression, dose response, counter-screen for Shn3 inhibitor project, cell-based, Clone20-Shn3RL, cherry-picked (AID 624133); format: functional
# Chain of Delta-type opioid receptor (P41143 whole entry): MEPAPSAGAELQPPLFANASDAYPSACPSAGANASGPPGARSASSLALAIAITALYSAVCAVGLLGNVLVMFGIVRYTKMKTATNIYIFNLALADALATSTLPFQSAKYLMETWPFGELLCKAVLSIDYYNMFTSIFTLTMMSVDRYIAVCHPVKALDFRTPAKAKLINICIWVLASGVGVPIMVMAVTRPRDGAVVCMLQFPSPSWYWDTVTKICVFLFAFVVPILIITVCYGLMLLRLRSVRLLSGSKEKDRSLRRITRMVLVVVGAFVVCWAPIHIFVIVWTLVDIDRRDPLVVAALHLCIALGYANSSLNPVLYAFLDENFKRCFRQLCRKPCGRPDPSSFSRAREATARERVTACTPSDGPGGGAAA
# Chain of Mu-type opioid receptor (P35372 whole entry): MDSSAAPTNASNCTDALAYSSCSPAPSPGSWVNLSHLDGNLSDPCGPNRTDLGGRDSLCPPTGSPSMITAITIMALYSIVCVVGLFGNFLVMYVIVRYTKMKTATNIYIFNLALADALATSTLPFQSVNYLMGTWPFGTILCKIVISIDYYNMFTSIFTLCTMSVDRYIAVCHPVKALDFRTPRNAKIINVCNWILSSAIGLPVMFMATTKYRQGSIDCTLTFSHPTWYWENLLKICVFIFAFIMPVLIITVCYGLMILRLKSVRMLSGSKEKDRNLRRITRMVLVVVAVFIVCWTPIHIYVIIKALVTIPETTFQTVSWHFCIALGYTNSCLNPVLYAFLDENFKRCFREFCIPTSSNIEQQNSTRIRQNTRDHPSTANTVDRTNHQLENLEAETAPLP
# Chain of 5-hydroxytryptamine receptor 5A (P47898 whole entry): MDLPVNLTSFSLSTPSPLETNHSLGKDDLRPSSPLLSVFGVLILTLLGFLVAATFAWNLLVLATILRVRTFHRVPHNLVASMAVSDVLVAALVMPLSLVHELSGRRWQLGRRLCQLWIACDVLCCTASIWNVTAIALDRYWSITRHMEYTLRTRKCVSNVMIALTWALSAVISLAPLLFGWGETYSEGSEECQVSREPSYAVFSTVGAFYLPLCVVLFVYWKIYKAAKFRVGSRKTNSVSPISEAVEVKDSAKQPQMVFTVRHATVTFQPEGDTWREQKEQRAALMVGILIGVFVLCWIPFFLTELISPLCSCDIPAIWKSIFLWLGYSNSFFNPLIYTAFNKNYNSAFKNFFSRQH
# Chain of Cytochrome P450 2C9 (P11712 whole entry): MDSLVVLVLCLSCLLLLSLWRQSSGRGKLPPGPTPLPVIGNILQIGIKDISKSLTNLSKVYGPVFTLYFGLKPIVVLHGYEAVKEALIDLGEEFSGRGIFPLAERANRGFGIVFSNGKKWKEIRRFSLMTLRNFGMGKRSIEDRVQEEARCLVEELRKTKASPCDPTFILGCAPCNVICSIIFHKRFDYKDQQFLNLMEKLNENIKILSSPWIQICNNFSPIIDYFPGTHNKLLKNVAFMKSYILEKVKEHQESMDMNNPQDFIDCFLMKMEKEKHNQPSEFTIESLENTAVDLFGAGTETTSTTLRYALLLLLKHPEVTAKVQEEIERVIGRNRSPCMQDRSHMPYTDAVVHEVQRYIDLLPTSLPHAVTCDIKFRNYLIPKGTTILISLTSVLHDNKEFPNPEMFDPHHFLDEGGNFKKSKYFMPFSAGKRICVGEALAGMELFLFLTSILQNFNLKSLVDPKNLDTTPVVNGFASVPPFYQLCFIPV
# Chain of Glucose-6-phosphate 1-dehydrogenase (P11413 whole entry): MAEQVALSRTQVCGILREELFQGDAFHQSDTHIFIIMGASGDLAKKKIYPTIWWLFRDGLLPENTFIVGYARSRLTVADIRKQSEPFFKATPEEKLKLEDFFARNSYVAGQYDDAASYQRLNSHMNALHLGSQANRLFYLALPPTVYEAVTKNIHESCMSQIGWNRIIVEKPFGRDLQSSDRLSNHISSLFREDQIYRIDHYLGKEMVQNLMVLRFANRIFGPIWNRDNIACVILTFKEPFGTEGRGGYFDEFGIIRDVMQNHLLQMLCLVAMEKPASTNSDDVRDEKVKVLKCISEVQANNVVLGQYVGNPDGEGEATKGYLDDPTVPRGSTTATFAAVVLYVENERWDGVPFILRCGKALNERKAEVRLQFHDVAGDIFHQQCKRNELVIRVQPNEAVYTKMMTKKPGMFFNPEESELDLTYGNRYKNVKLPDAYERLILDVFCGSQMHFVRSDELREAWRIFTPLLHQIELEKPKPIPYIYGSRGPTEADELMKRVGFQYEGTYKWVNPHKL
smiles,measurement,setting,value
Nc1nc2cc([N+](=O)[O-])ccc2[nH]1,AC50,[1],7.07 µM (active)
CCN1CCN(c2ncnc3scc(-c4ccc(OC)cc4)c23)CC1,IC50,[2],12.9 µM (active)
O=C(CSc1nnc(-c2ccc3c(c2)OCO3)o1)Nc1ncc(C(F)(F)F)cc1Cl,EC50,[3],1.16 µM (active)
same,EC50,[4],> 150 µM (not active)
same,EC50,[5],20.4 µM (active)
same,AC50,[6],5.84 µM (active)
same,AC50,[7],28.5 µM (active)
COc1ccc(C(C(=O)NC2CCCCC2)N(C(=O)Cc2c[nH]c3ccccc23)c2ccc(NC(C)=O)cc2)cc1OC (configuration not stated),EC50,[8],> 92.5 µM (inactive)
same,EC50,[9],> 92.5 µM (inactive)
same,EC50,[10],> 92.5 µM (inactive)
same,AC50,[11],25.1 µM (inconclusive)
same,AC50,[12],12.6 µM (inconclusive)
Cc1cc(/C=N/NC(=O)C(=O)N2CCCC2)c(C)n1-c1cccc(Br)c1,IC50,[2],13.8 µM (active)
Cc1cc(C)nc(-n2ncc3c2CC(c2cccc(Cl)c2)CC3=O)n1 (configuration not stated),AC50,[6],29.1 µM (active)
same,AC50,[7],46.8 µM (active)
COC(=O)c1cc2c(n1S(=O)(=O)c1ccc(C)cc1)C(=O)C(=O)c1[nH]cc(C(=O)OCc3ccccc3)c1-2,IC50,[13],> 80 µM (inactive)
same,EC50,[8],> 92.4 µM (inactive)
same,EC50,[9],> 92.4 µM (inactive)
same,EC50,[10],> 92.4 µM (inactive)
same,AC50,[14],1.2 µM (active)
same,AC50,[15],1.94 µM (active)
same,AC50,[16],1.64 µM (active)

# From ChEMBL document CHEMBL1201862, “PubChem BioAssay data set” (2004)
